Laboratory results from patent US8415312B2, “Compound which is a nystatin derivative” (Biosergen AS, priority 2007, dated 2013).
Converted amounts (≈) assume the structure as drawn. “And” between values parts separate entries of the source, which are not always exact repeats. Equal entries are not always repeated.

Experiments:
[1] = test system: Cryptococcus humicolus ATCC 9949; assay: Antifungal susceptibility study (1), broth microdilution MIC; type: cell-based; details: lowest concentration preventing any visible growth, read at 48 hours, 25° C., RPMI 1640 pH 7.0
Procedure: (§1) ACROS ORGANICS, New Jersey, USA), pH 7.0, was used in study. […] Then these DMSO solutions were diluted 50-fold (first 10-fold and then 5-fold) in the test medium. […] The solutions were prepared just before using. The organisms used for susceptibility testing were: Candida albicans ATCC 14053, Cryptococcus humicolus ATCC 9949, Aspergillus niger ATCC 16404 and Fusarium oxysporum VKM F-140 (=CMI, IMI 90473). Organisms were stored on potato dextrose agar […] 50% glycerol solution at -70° C. For short-term storage, stock cultures were stored on agar […] 4° C. The cultures of yeasts were sub-cultured onto Sabouraud dextrose (SAB) agar and incubated for 24 hours at 35° C. (Candida albicans) or for 48 hours at 25° C. (Cryptococcus humicolus) to obtain a freshly grown pure culture. The cultures of moulds were sub-cultured onto potato dextrose agar and incubated for 7 days at 35° C. […] (Fusarium oxysporum) to ensure maximum sporulation. […] Inoculum quantitation was performed by plating dilution of the inoculum on Sabouraud dextrose agar to determine the viable number of CFU per milliliter. Sterile 96-well flat-bottomed microtitration plates were used for testing. 100 μl of diluted inocula were dispensed into each microdilution well containing 100 μl of the double dilutions of compounds. Drug-free and yeast/mould-free controls were included. Microdilution trays were incubated at 35° C. (Candida albicans and moulds) or 25° C. (Cryptococcus humicolus) without agitation and observed for the presence or absence of visible growth. […] Minimal inhibitory concentrations (MICs) were read at 48 hours.

[2] = test system: Candida albicans ATCC 14053; assay: as above; type: cell-based; details: lowest concentration preventing any visible growth, read at 48 hours, 35° C., RPMI 1640 pH 7.0
Procedure: as §1

erythrocytes = assay: In vitro toxicity study, haemolysis (Tables 11 and 12); type: cell-based, horse; details: for Haemolysis of erythrocytes, Mean ± S.E.M.: 25 μM (Table 12)
Procedure: The toxicity of various nystatin derivatives was tested at 2 and 5 μg/mL and at 25 μM.
Compounds were dissolved in DMSO at 5 mg/mL and 0.1 mL samples with different concentrations were prepared in DMSO. The samples were mixed with 0.9 mL PBS buffer containing 2.5% horse blood (PBS-HB; kept on ice) and incubated at 37° C. for 30 min without agitation.
Cells were pelleted by centrifugation at 5000 rpm for 5 min and haemolysis was evaluated by measuring OD545. 100% haemolysis was defined as the OD545 value obtained from a suspension of 2.5% horse blood in distilled water.

[3] = test system: Fusarium oxysporum VKM F-140; assay: Antifungal susceptibility study (1), broth microdilution MIC; type: cell-based; details: lowest concentration preventing any visible growth, read at 48 hours, 35° C., RPMI 1640 pH 7.0
Procedure: (§2) ACROS ORGANICS, New Jersey, USA), pH 7.0, was used in study. […] Then these DMSO solutions were diluted 50-fold (first 10-fold and then 5-fold) in the test medium. […] The solutions were prepared just before using. The organisms used for susceptibility testing were: Candida albicans ATCC 14053, Cryptococcus humicolus ATCC 9949, Aspergillus niger ATCC 16404 and Fusarium oxysporum VKM F-140 (=CMI, IMI 90473). Organisms were stored on potato dextrose agar […] 50% glycerol solution at -70° C. For short-term storage, stock cultures were stored on agar […] 4° C. The cultures of yeasts were sub-cultured onto Sabouraud dextrose (SAB) agar and incubated for 24 hours at 35° C. (Candida albicans) or for 48 hours at 25° C. (Cryptococcus humicolus) to obtain a freshly grown pure culture. The cultures of moulds were sub-cultured onto potato dextrose agar and incubated for 7 days at 35° C. […] (Fusarium oxysporum) to ensure maximum sporulation. […] Finally, the suspensions were vortexed for 15 s to break up clumps of cells and then filtered through four layers of sterile gauze. The densities of conidial spore suspensions was measured at 530 nm and adjusted to 0.09-0.11 for Aspergillus niger and 0.15-0.17 for Fusarium oxysporum. These suspensions were diluted 1:50 with the standard medium. […] Inoculum quantitation was performed by plating dilution of the inoculum on Sabouraud dextrose agar to determine the viable number of CFU per milliliter. Sterile 96-well flat-bottomed microtitration plates were used for testing. 100 μl of diluted inocula were dispensed into each microdilution well containing 100 μl of the double dilutions of compounds. Drug-free and yeast/mould-free controls were included. Microdilution trays were incubated at 35° C. (Candida albicans and moulds) or 25° C. (Cryptococcus humicolus) without agitation and observed for the presence or absence of visible growth. […] Minimal inhibitory concentrations (MICs) were read at 48 hours.

[4] = test system: Aspergillus niger ATCC 16404; assay: as above; type: cell-based; details: lowest concentration preventing any visible growth, read at 48 hours, 35° C., RPMI 1640 pH 7.0
Procedure: as §2

[5] = test system: Candida albicans (strain 14053 ATCC); assay: Model of the candidiasis sepsis of mice, kidney burden; type: in vivo
Procedure: In experiments used female mice of hybrids of first generation (C57B1/6xDBA/2)F1 (B6D2F1), weight 18-20 g., received from the Central farm “Kryukovo” of Russian Academies of Medical Science (RAMS). Animals were maintained in Institute' vivarium in plastic cages (with hardwood bedding in environmentally controlled room: 24±1° C., 12/12 hours light/dark cycle) on a standard diet of bricketed forages with an easy approach to drinking water (ad libitum). After 2-week quarantine healthy animals were used in experimental work.
A preparation of comparison was amphotericin B (pure). Solutions of tested preparations prepared ex tempore by the technique specified by the customer.
Animals were housed on 3 mice and infected intravenously with culture Candida albicans in a doze 1.0 million CFU/mouse in volume of 0.1 ml. It is necessary to note, that doze Candida albicans remained a constant in all experiments. In 30 minutes after infection to mice carried out the first intravenous introduction of tested preparations in corresponding dozes in volume of 0.2 ml (with a speed of 0.2 ml/30 second).
Experiment has been planned in such a manner that in each experiment one doze (both for amphotericin B was used, and for tested preparations), each doze entered daily within four days, since day of infection (0, 1, 2 and 3 days). At each experiment there was a group untreated, infected with Candida albicans animals. Also there was a group “placebo”, intact (not infected) animals, which intravenously (in the same volume as medical preparations) injected 0.2 ml of solvent—phosphatic buffer +5% glucose (1:1).
On the post challenge 5th day of experiment, mice were weighed and euthanized (killed) by a cervical dislocation. Then, in sterile conditions, Candida albicans burdens were determined by viable counting of homogenates from the kidneys. The kidneys, which were removed aseptically and weighed, pounded in porcelain mortars with sterile corundum, did dilutions of the received suspensions and sowed on Petri dishes with agar Saburo, incubated for 48 hours at temperature 35° C., then counted up developed colonies Candida albicans and recalculated their quantity on 1 g of kidney' tissue. The first dilution was 10^−1. Zero result at this cultivation accepted for 5 CFU/g.
For the basic criterion of an assessment of the investigated preparations the maximal effect of the Amphotricin B was accepted (effective dose, ED).
For significant accepted distinctions of average at P≦0.05 at comparison by Student t-criterion.

[6] = test system: mice (C57B1/6xDBA/2)F1 B6D2F1; details: single injection into tail vein, probit analysis
Procedure: Male mice of hybrids of first generation (C57B1/6xDBA/2)F1 B6D2F1, weight 20-22 g., received from the Central farm. “Kryukovo” of Russian Academies of Medical Science (RAMS) were used. Animals were maintained in a vivarium in plastic cages (with hardwood bedding in environmentally controlled conditions: 24±1° C., 12/12 hours light/dark cycle) on a standard diet of bricketed forages with easy access to drinking water (ad libitum). After a 2-week quarantine period, healthy animals were used in experimental work.
The solutions were prepared as follows: dry antibiotic substances (5 mg) were mixed with dry sodium deoxycholate (4.1 mg) in a sterile glass vial. 10 mL of phosphate buffer (NaH2PO4—1.59 g; Na2HPO4—0.96 g; H2O—to 100 mL) was added to the mix and the suspension was immediately subjected to vigorous shaking for 10 minutes until homogeneous suspensions were formed.
Preparations of amphotericin B and S44HP were also prepared in the same way.
The antibiotic preparations were singly injected into the mice's tail vein within 1-1.5 hours after the preparation of solutions. […] Each antibiotic was used in a range of doses resulting in 0% to 100% lethality and a minimum of 3 intermediate doses. Animals were randomized into groups, each containing 6 mice.

[7] = 25 μM, individual blood samples (Table 12)
[8] = dose 0.16 mg/kg/d i.v. for four days, day 5, n=3 mice
[9] = dose 0.62 mg/kg/d i.v. for four days, day 5, n=3 mice
[10] = dose 2.5 mg/kg/d i.v. for four days, day 5, n=3 mice
[11] = dose 10 mg/kg/d i.v. for four days, day 5, n=3 mice, zero result accepted for 5 CFU/g

Row | SMILES | MIC Cryptococcus humicolus ATCC 9949 [1] [µg/mL] | MIC Candida albicans ATCC 14053 [2] [µg/mL] | Haemolysis of erythrocytes, Mean ± S.E.M. (erythrocytes) [%] | Haemolysis of erythrocytes (erythrocytes; [7]) | MIC Fusarium oxysporum VKM F-140 [3] [µg/mL] | MIC Aspergillus niger ATCC 16404 [4] [µg/mL] | Candida albicans burden in kidneys (Mean) [5, 8] [CFU/g] | Candida albicans burden in kidneys (Mean) [5, 9] [CFU/g] | Candida albicans burden in kidneys (Mean) ([5]; dose 1.25 mg/kg/d i.v. for four days, day 5, n=3 mice) [CFU/g] | Candida albicans burden in kidneys (Mean) [5, 10] [CFU/g] | Candida albicans burden in kidneys (Mean) [5, 11] [CFU/g] | LD50 [6] [mg/kg] | MTD [6] [mg/kg] | Haemolysis of erythrocytes, Mean ± SE (erythrocytes; 5 μg/mL (Table 11)) [%] | Haemolysis of erythrocytes (erythrocytes; 5 μg/mL, individual blood samples # 1-3 (Table 11)) | Candida albicans burden in kidneys (Mean) ([5]; in vivo, iv, 1.25 mg/kg/day) [CFU/g]
1 | CC1C=CC=CC=CC=CC=CC=CC=CC(OC2OC(C)C(O)C(NCC3(O)OCC(O)C(O)C3O)C2O)CC2OC(O)(CC(O)C(O)CCC(O)CC(O)CC(O)CC(=O)OC(C)C(C)C1O)CC(O)C2C(=O)O (single isomer, unassigned) [Compound 17] | 1 (≈ 0.921 µM) | 1 (≈ 0.921 µM) | 2.4 ± 0.6 | 1.7% (2×) and 2.1% and 0.8% and 3.3% and 4.8% | 8 (≈ 7.36 µM) | 2 (≈ 1.84 µM) |  |  |  |  |  |  |  |  |  | 
2 | CC1O[C@@H](O[C@H]2/C=C/C=C/C=C/C=C/C=C/C=C/C=C/[C@H](C)[C@@H](O)[C@@H](C)[C@H](C)OC(=O)C[C@H](O)C[C@H](O)C[C@H](O)CC[C@@H](O)[C@H](O)C[C@]3(O)C[C@H](O)[C@@H](C(=O)NCCN(C)C)[C@H](C2)O3)[C@H](O)C(N)[C@@H]1O (stereo partly drawn) [Compound 48, N,N-dimethylaminoethyl (DMAE) S44HP Amide] | 0.5 (≈ 0.503 µM) | 0.5 (≈ 0.503 µM) |  |  | 1 (≈ 1.01 µM) | 1 (≈ 1.01 µM) | 51667 | 3233 | 1487 | 63 | 5 | 32.2 | 25.9 |  |  | 
3 | CC1C=CC=CC=CC=CC=CC=CC=CC(OC2OC(C)C(O)C(NCC3(O)OCC(O)C(O)C3O)C2O)CC2OC(O)(CC(O)C(O)CCC(O)CC(O)CC(O)CC(=O)OC(C)C(C)C1O)CC(O)C2C(=O)O (single isomer, unassigned) [Compound 18] | 1 (≈ 0.921 µM) | 1 (≈ 0.921 µM) | 3.9 ± 1.3 | 3.0% and 3.2% and 9.7% and 1.0% and 1.5% and 5.3% | 8 (≈ 7.36 µM) | 2 (≈ 1.84 µM) |  |  |  |  |  |  |  |  |  | 
4 | CC1C=CC=CC=CC=CC=CC=CC=CC(OC2OC(C)C(O)C(N)C2O)CC2OC(O)(CC(O)C(O)CCC(O)CC(O)CC(O)CC(=O)OC(C)C(C)C1O)CC(O)C2C(N)=O (stereo not drawn) [Compound 7] | 1 (≈ 1.08 µM) | 2 (≈ 2.17 µM) | 1.5 ± 0.17 | 1.7% and 1.3% and 1.9% (3×) and 1.0% and 0.9% | 8 (≈ 8.67 µM) | 2 (≈ 2.17 µM) |  |  |  |  |  |  |  | 5.2 ± 0.2 | 5.8% and 5.0% (2×) | 
5 | CC1O[C@@H](O[C@H]2/C=C/C=C/C=C/C=C/C=C/C=C/C=C/[C@H](C)[C@@H](O)[C@@H](C)[C@H](C)OC(=O)C[C@H](O)C[C@H](O)C[C@H](O)CC[C@@H](O)[C@H](O)C[C@]3(O)C[C@H](O)[C@@H](C(=O)NCCN(C)C)[C@H](C2)O3)[C@H](O)C(NCC2(O)OC[C@@H](O)[C@@H](O)[C@@H]2O)[C@@H]1O.Cl (stereo partly drawn) [Compound 41] | 1 | 0.5 |  |  | 2 | 1 | 67000 | 22667 |  | 1667 | 5 | 38.6 | 21.2 |  |  | 2767
6 | CNC(=O)C1C(O)CC2(O)CC(O)C(O)CCC(O)CC(O)CC(O)CC(=O)OC(C)C(C)C(O)C(C)C=CC=CC=CC=CC=CC=CC=CC(OC3OC(C)C(O)C(N)C3O)CC1O2 (stereo not drawn) [Compound 6] | 2 (≈ 2.13 µM) | 2 (≈ 2.13 µM) | 3.7 ± 0.6 | 3.7% and 4.3% and 3.2% and 2% and 2.4% and 3.3% and 7% | 4 (≈ 4.27 µM) | 4 (≈ 4.27 µM) |  |  |  |  |  |  |  |  |  | 
